How the values were obtained:
parental CHO-K1 cells [1] = assay: Plate immunoassay for pERK, parental CHO-K1 cells; type: cell-based, Chinese hamster
parental CHO-K1 cells [2] = assay: Intracellular calcium (Cai++) release assay, parental CHO-K1 cells; type: cell-based, Chinese hamster
Protocol: Changes in Cai^++ levels were determined using the calcium-sensitive dye Calcium 4 (FLIPR No-wash kit, Molecular Devices, Sunnyvale CA, part #R8142). In our hands, the Molecular Devices kit produced results with reasonable signal intensity and reproducibility compared to other commercially available reagents (e.g., Fluo-3 and Fluo-4) without the necessity of dye removal or washing prior to measurements (data not shown). In addition to convenience, the lower number of manipulations required by this kit allowed for more rapid collection of data and decreased the likelihood of cell disturbance or loss.
Cells were plated in serum-replete medium at indicated densities in black-sided, clear bottom 96-well tissue culture plates. […] When plating volume was less than 150 μl, cells were less evenly distributed (visual observation; data not quantified), so we used 150 to 200 μl. […]
Fluorescence (λex = 485 nm, λem = 525 nm) was measured with a FlexStation3 (Molecular Devices). […] The CHO cells remained attached under these conditions; if using other cells lines, attachment should be monitored and reagent addition conditions modified as necessary.
Following addition of test reagent, fluorescence was recorded every 1.7 sec for 90-120 sec. […] Maximum peak height was determined by the FlexStation software (SoftMax Pro 5.2) for each well. […]

h5-HT2AR [3] = molecular target: T1, h5-HT2AR (Homo sapiens, UniProt P28223); assay: Plate immunoassay for pERK, 5-HT2AR-CHO cells; type: cell-based; conditions: for pERK response after serum-replete preincubation: overnight serum-replete preincubation (Figure 7)
T1 sequence (P28223 whole entry): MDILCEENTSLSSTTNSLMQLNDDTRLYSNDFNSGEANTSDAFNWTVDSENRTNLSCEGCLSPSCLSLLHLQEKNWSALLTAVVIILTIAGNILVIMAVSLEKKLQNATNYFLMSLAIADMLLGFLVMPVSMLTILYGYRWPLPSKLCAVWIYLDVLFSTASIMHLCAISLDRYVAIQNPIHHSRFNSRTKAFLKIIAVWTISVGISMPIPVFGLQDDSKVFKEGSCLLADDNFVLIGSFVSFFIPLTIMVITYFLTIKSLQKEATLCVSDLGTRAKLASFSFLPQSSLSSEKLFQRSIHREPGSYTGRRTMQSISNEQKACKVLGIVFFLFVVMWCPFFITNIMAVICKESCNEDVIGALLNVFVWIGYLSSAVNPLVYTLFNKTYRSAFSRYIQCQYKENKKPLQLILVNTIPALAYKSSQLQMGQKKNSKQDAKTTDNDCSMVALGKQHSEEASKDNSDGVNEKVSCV

h5-HT2AR [4] = molecular target: T1, h5-HT2AR; assay: Intracellular calcium (Cai++) release assay, Calcium 4 dye, 5-HT2AR-CHO cells; conditions: for Cai++ response when dye added into existing growth medium: "Serum Replete" protocol, 1 μM agonist (Figure 2)
unedited h5-HT2CR [5] = molecular target: T2, unedited h5-HT2CR (Homo sapiens, UniProt P28335); assay: cell-based
T2 sequence (P28335 33-458): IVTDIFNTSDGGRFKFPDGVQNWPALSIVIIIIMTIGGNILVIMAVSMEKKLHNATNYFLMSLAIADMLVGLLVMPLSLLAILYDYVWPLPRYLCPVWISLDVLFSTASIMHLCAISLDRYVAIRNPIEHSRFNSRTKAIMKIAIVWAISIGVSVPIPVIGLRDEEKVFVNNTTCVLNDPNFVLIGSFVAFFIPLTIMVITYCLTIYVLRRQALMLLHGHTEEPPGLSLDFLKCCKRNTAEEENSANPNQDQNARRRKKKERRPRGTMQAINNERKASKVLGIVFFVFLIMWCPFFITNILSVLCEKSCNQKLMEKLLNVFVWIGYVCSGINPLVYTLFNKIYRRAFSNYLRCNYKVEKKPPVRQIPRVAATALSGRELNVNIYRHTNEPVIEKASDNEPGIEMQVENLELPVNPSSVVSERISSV

unedited h5-HT2CR [6] = molecular target: T2, unedited h5-HT2CR; assay: Intracellular calcium (Cai++) release assay, Calcium 4 dye, 5-HT2CR-CHO cells
unedited h5-HT2CR [7] = molecular target: T2, unedited h5-HT2CR; conditions: 5-HT2CR-CHO cells
[8] = EC50 values for agonist-stimulated Cai++ release, 5-HT2CR-CHO cells, Serum-replete overnight preincubation

NCCc1c[nH]c2ccc(O)cc12 [5-HT, serotonin]
pERK response (parental CHO-K1 cells [1]): no detectable response | Cai++ release above baseline (parental CHO-K1 cells [2]; above 10^-6 M 5-HT, in a few experiments, not consistent): < 5% | Cai++ release (parental CHO-K1 cells [2]; any concentration of 5-HT (Figure 4B inset)): no Cai^++ release | pERK response after serum-replete preincubation (h5-HT2AR [3]): suppressed | Time of peak ERK activation (h5-HT2AR [3]; serum-starved overnight, 1 μM 5-HT): 5 min | Cai++ response when dye added into existing growth medium (h5-HT2AR [4]): dramatically reduced

COc1cc(CC(C)N)c(OC)cc1I (stereo not shown) [DOI, 1-[2,5-dimethoxy-4-iodophenyl]-2 aminopropane]
EC50 (unedited h5-HT2CR [5]): 19 nM | Concentration giving maximal pERK response (h5-HT2AR [3]; 5 min stimulation): ~1 μM | pERK response after serum-replete preincubation (h5-HT2AR [3]): suppressed | Cai++ response after serum preincubation (unedited h5-HT2CR [6]; 5-HT2CR-CHO cells, overnight serum-replete preincubation (Figure 3D)): virtually eliminated | EC50 (unedited h5-HT2CR [6]; [8]): > 100000 nM | EC50 (unedited h5-HT2CR [6]; EC50 values for agonist-stimulated Cai++ release, 5-HT2CR-CHO cells, Serum-starved overnight preincubation): 5.4 nM | Concentration giving maximal pERK response (unedited h5-HT2CR [7]; 5 min stimulation): ~1 μM | pERK response after serum-replete preincubation (unedited h5-HT2CR [7]; overnight serum-replete preincubation (Figure 7)): suppressed | Cai++ response when dye added into existing growth medium (h5-HT2AR [4]): completely eliminated | Cai++ response after serum preincubation (h5-HT2AR [4]; overnight serum-replete preincubation (Figure 3B)): virtually eliminated

Clc1cncc(N2CCNCC2)n1 [MK212]
Cai++ response after serum-replete preincubation (unedited h5-HT2CR [6]; 5-HT2CR-CHO cells preincubated in serum-replete medium): greatly decreased | EC50 (unedited h5-HT2CR [6]; [8]): > 11000 nM | Cai++ response magnitude (unedited h5-HT2CR [6]; serum-starved 5-HT2CR-CHO cells): low magnitude | EC50 values for agonist-stimulated Cai++ release (h5-HT2AR [4]; Serum-replete overnight preincubation): No response | EC50 values for agonist-stimulated Cai++ release (h5-HT2AR [4]; Serum-starved overnight preincubation): No response | Cai++ release (h5-HT2AR [4]; any tested concentration up to 10^-4 M): no detectable Cai^++ release

COc1ccc(NC(=O)c2ccc(-c3ccc(-c4noc(C)n4)cc3C)cc2)cc1OCCN(C)C [SB216641]
Effect of 5-HT1BR antagonist on Cai++ concentration response to 5-HT (unedited h5-HT2CR [6]; 5-HT2CR-CHO cells, 10^-6 M SB216641, any concentration of 5-HT): no significant difference

Cc1cc2c(cc1Cl)N(C(=O)Nc1ccc(Oc3cccnc3C)nc1)CC2 [SB242084]
EC50 (unedited h5-HT2CR [6]): 2.3 nM | Inhibition of 5-HT-stimulated Cai++ response by antagonist (unedited h5-HT2CR [6]; 5-HT2CR-CHO cells, 15 min pretreatment, 1 μM 5-HT): completely inhibited
